Data: patent US8741886B2, “Baclofen and acamprosate based therapy of neurological disorders” (Pharnext, priority 2011, dated 2014)

Assays:
[1] = test system: rat cortical neurons; test: Toxicity of Aβ1-42 in neurite growth model: total length of neurite network; format: cell-based; settings: Aβ1-42 2.5 μM; single drugs at the concentrations used in the combination
Protocol: Rat cortical neurons were cultured as described by Singer et al. (35). Briefly pregnant female rats of 15 days gestation were killed by cervical dislocation (Rats Wistar) and the foetuses were removed from the uterus. The cortex was removed and placed in ice-cold medium of Leibovitz (L15) containing 2% of Penicillin 10.000 U/ml and Streptomycin 10 mg/ml and 1% of bovine serum albumin (BSA). Cortices were dissociated by trypsin for 20 min at 37° C. (0.05%). The reaction was stopped by the addition of Dulbecco's modified Eagle's medium (DMEM) containing DNasel grade II and 10% of foetal calf serum (FCS). Cells were then mechanically dissociated by 3 serial passages through a 10 ml pipette and centrifuged at 515×g for 10 min at +4° C. […] Viable cells were counted in a Neubauer cytometer using the trypan blue exclusion test. […]
After 24 hours of intoxication, the supernatant is taken off and the cortical neurons are fixed by a cold solution of ethanol (95%) and acetic acid (5%) for 5 min. […] Then, cells are incubated with monoclonal antibody anti microtubule-associated-protein 2 (MAP-2; Sigma) or with anti synaptophysin (SYN, S5798, Sigma) together with anti PSD95 (P246, Sigma) antibodies in order to quantify synapses. […]

[2] = test system: mice injected i.c.v. with Aβ25-35 peptide; test: Passive avoidance test after i.c.v. Aβ25-35; format: in vivo; settings: Acamprosate 0.2 mg/kg; Baclofen 3 mg/kg
Protocol: Male Swiss mice are used throughout the study. Animals are housed in plastic cages, with free access to laboratory chow and water, except during behavioural experiments, and kept in a regulated environment, under a 12 h light/dark cycle (light on at 8:00 a.m.). Experiments are carried out in a soundproof and air-regulated experimental room, to which mice have been habituated at least 30 min before each experiment.
Drug(s) is/are daily administered by gavage (per os). The β25-35 peptide and scrambled β 25-35 peptide (control) have been dissolved in sterile bidistilled water, and stored at −20° C. until use. The β-amyloid peptides are then administered intracerebroventricularly (i.c.v.). […]
On day 7 and 8, the contextual long-term memory of the animals is assessed using the […] passive avoidance procedure.
The apparatus is a two-compartment (15×20×15 cm high) box with one illuminated with white polyvinylchloride walls and the other darkened with black polyvinylchloride walls and a grid floor. […] The step-through latency, that is, the latency spent to enter the darkened compartment, and the number of vocalizations is recorded. […] After 5 s the doors is raised, the step-through latency and the escape latency, i.e. the time spent to return into the white compartment, are recorded up to 300 s.

[3] = test system: neuronal cortical cells; test: Glutamate toxicity assay on primary cortical neurons (neurite network, neurofilament immunostaining); format: cell-based, rat; settings: Baclofen 400 nM, Acamprosate 1.6 nM; glutamate 40 μM, 20 min
Protocol: The efficacy of drug combinations of the invention is assessed on primary cortical neuron cells. The protocol which is used in these assays is the same as described in section A.I.2 above.
After 12 days of neuron culture, drugs of the candidate combinations are solved in culture medium (+0.1% DMSO). Candidate combinations are then pre-incubated with neurons for 1 hour before the Glutamate injury. One hour after incubation with, Glutamate is added for 20 min, to a final concentration of 40 μM, in presence of candidate combinations, in order to avoid further drug dilutions. At the end of the incubation, medium is changed with medium with candidate combination but without glutamate. The culture is fixed 24 hours after glutamate injury. MK801 (Dizocilpinehydrogen maleate, 77086-22-7-20 μM) is used as a positive control.
After permeabilization with saponin (Sigma), cells are blocked for 2 h with PBS containing 10% goat serum, then the cells are incubated with mouse monoclonal primary antibody against Neurofilament antibody (NF, Sigma).
Nuclei of cells are labeled by a fluorescent marker (Hoechst solution, SIGMA), and neurite network quantified. Six wells per condition are used to assess neuronal survival in 3 different cultures.

CC(=O)NCCCS(=O)(=O)O [Acamprosate]
effect on Aβ1-42 intoxication, total length of neurites network (in words) [1]: no significant effect
effect on step-through latency, drugs alone compared with the combination (in words) [2]: lower effect
effect on glutamate intoxication (in words) [3]: no significant effect

NCC(CC(=O)O)c1ccc(Cl)cc1 (stereo not drawn) [Baclofen]
effect on Aβ1-42 intoxication, total length of neurites network (in words) [1]: no significant effect
effect on step-through latency, drugs alone compared with the combination (in words) [2]: lower effect
effect on glutamate intoxication (in words) [3]: no significant effect
